Test: xn = mol fraction of the nth substance listed

CCC(=O)c1ccccc1 + CN(C)c1ccccc1
viscosity [mPa·s], 101 kPa
Conditions | 303.15 K | 308.15 K
x2 = 0.0658 | 1.475 | 1.429
x2 = 0.1256 | 1.445 | 1.398
x2 = 0.1989 | 1.411 | 1.362
x2 = 0.2531 | 1.388 | 1.338
x2 = 0.3331 | 1.358 | 1.305
x2 = 0.4074 | 1.332 | 1.279
x2 = 0.4755 | 1.309 | 1.254
x2 = 0.5265 | 1.293 | 1.237
x2 = 0.6121 | 1.268 | 1.21
x2 = 0.6923 | 1.249 | 1.187
x2 = 0.7625 | 1.229 | 1.167
x2 = 0.8156 | 1.217 | 1.155
x2 = 0.8625 | 1.208 | 1.144

CC(C)NC(C)C + CNC(C)=O
308.15 K, 101 kPa
Conditions | viscosity [mPa·s]
x2 = 0.0739 | 0.3617
x2 = 0.2151 | 0.5132
x2 = 0.3226 | 0.7392
x2 = 0.4754 | 1.069
x2 = 0.6497 | 1.625
x2 = 0.786 | 2.167
x2 = 0.8761 | 2.652
x2 = 0.9277 | 2.973
x2 = 0.9762 | 3.194

CCC(=O)c1ccccc1 + CNC(C)=O
308.15 K, 101 kPa
Conditions | viscosity [mPa·s]
x1 = 0.06 | 2.972
x1 = 0.1269 | 2.778
x1 = 0.1862 | 2.61
x1 = 0.2778 | 2.38
x1 = 0.3654 | 2.19
x1 = 0.4649 | 2.005
x1 = 0.5709 | 1.828
x1 = 0.6929 | 1.648
x1 = 0.8315 | 1.485

OCCO + CO
Conditions | viscosity [mPa·s]
293.15 K, 101.33 kPa, x1 = 0.0476 | 0.724
293.15 K, 101.33 kPa, x1 = 0.0598 | 0.766
293.15 K, 101.33 kPa, x1 = 0.0918 | 0.914
293.15 K, 101.33 kPa, x1 = 0.1023 | 0.918
293.15 K, 101.33 kPa, x1 = 0.1742 | 1.243
293.15 K, 101.33 kPa, x1 = 0.2098 | 1.409
293.15 K, 101.33 kPa, x1 = 0.3191 | 2.142
293.15 K, 101.33 kPa, x1 = 0.3538 | 2.413
293.15 K, 101.33 kPa, x1 = 0.4072 | 2.906
293.15 K, 101.33 kPa, x1 = 0.4225 | 3.085
293.15 K, 101.33 kPa, x1 = 0.4474 | 3.338
293.15 K, 101.33 kPa, x1 = 0.4889 | 3.824
293.15 K, 101.33 kPa, x1 = 0.5955 | 5.485
293.15 K, 101.33 kPa, x1 = 0.6932 | 7.481
293.15 K, 101.33 kPa, x1 = 0.836 | 11.43
293.15 K, 101.33 kPa, x1 = 0.859 | 12.3
298.15 K, 101 kPa, x1 = 0.1 | 0.8363
298.15 K, 101 kPa, x1 = 0.2 | 1.245
298.15 K, 101 kPa, x1 = 0.2969 | 1.998
298.15 K, 101 kPa, x1 = 0.3 | 1.795
298.15 K, 101 kPa, x1 = 0.34 | 2.045
298.15 K, 101 kPa, x1 = 0.4 | 2.562
298.15 K, 101 kPa, x1 = 0.5 | 3.602
298.15 K, 101 kPa, x1 = 0.6 | 5.022
298.15 K, 101 kPa, x1 = 0.7 | 6.964
298.15 K, 101 kPa, x1 = 0.8 | 9.561
298.15 K, 101 kPa, x1 = 0.9 | 13.09
308.15 K, 101 kPa, x1 = 0.1 | 0.7007
308.15 K, 101 kPa, x1 = 0.2 | 1.011
308.15 K, 101 kPa, x1 = 0.2969 | 1.634
308.15 K, 101 kPa, x1 = 0.3 | 1.442
308.15 K, 101 kPa, x1 = 0.4 | 2.032
308.15 K, 101 kPa, x1 = 0.5 | 2.818
308.15 K, 101 kPa, x1 = 0.6 | 3.883
308.15 K, 101 kPa, x1 = 0.7 | 5.269
308.15 K, 101 kPa, x1 = 0.8 | 6.952
308.15 K, 101 kPa, x1 = 0.9 | 9.251
318.15 K, 101 kPa, x1 = 0.1 | 0.6194
318.15 K, 101 kPa, x1 = 0.2 | 0.8557
318.15 K, 101 kPa, x1 = 0.2969 | 1.36
318.15 K, 101 kPa, x1 = 0.3 | 1.172
318.15 K, 101 kPa, x1 = 0.4 | 1.59
318.15 K, 101 kPa, x1 = 0.5 | 2.134
318.15 K, 101 kPa, x1 = 0.6 | 2.844
318.15 K, 101 kPa, x1 = 0.7 | 3.783
318.15 K, 101 kPa, x1 = 0.8 | 4.96
318.15 K, 101 kPa, x1 = 0.9 | 6.432

S=C=S + CO
298.15 K, 101.33 kPa
Conditions | viscosity [mPa·s]
x1 = 0.0437 | 0.5883
x1 = 0.0987 | 0.5838
x1 = 0.1521 | 0.5538
x1 = 0.2248 | 0.5669
x1 = 0.2969 | 0.57
x1 = 0.9488 | 0.4088

CCC(=O)c1ccccc1 + COCCO
viscosity [mPa·s], 101 kPa
Conditions | x1 = 0.0624 | x1 = 0.1302 | x1 = 0.2041 | x1 = 0.2852 | x1 = 0.3744 | x1 = 0.4731 | x1 = 0.5827 | x1 = 0.7054 | x1 = 0.8434
303.15 K | 1.568 | 1.562 | 1.557 | 1.551 | 1.545 | 1.54 | 1.534 | 1.529 | 1.523
308.15 K | 1.394 | 1.398 | 1.403 | 1.408 | 1.414 | 1.422 | 1.431 | 1.442 | 1.454
313.15 K | 1.234 | 1.246 | 1.259 | 1.274 | 1.292 | 1.312 | 1.334 | 1.359 | 1.388
318.15 K | 1.108 | 1.125 | 1.145 | 1.167 | 1.192 | 1.22 | 1.251 | 1.287 | 1.328

NCc1ccccc1 + COc1ccccc1
303.15 K, 101 kPa
Conditions | viscosity [mPa·s]
x1 = 0.1 | 0.939
x1 = 0.2 | 0.975
x1 = 0.3 | 1.016
x1 = 0.3999 | 1.061
x1 = 0.4999 | 1.11
x1 = 0.5999 | 1.163
x1 = 0.7 | 1.22
x1 = 0.8 | 1.281
x1 = 0.9 | 1.346

O=C[C@H](O)[C@@H](O)[C@H](O)[C@H](O)CO + CS(C)=O
viscosity [mPa·s], 101 kPa
Conditions | x1 = 0.04081 | x1 = 0.08276 | x1 = 0.1291 | x1 = 0.1784
298.15 K | 3.819 | 8.234 | 21.23 | 62.65
308.15 K | 2.988 | 5.977 | 13.9 | 36.04
318.15 K | 2.408 | 4.525 | 9.672 | 22.4

O=CN1CCOCC1 + Cc1cc(C)cc(C)c1
298.15 K, 101.3 kPa
Conditions | viscosity [mPa·s]
x2 = 0.02898 | 7.041
x2 = 0.0601 | 6.315
x2 = 0.08748 | 5.789
x2 = 0.1453 | 4.838
x2 = 0.2504 | 3.53
x2 = 0.3197 | 2.903
x2 = 0.4426 | 2.093
x2 = 0.5274 | 1.701
x2 = 0.6167 | 1.375
x2 = 0.661 | 1.264
x2 = 0.7503 | 1.058
x2 = 0.8348 | 0.877
x2 = 0.9476 | 0.731

O=CN1CCOCC1 + Cc1ccc(C)cc1
viscosity [mPa·s]
Conditions | 298.15 K | 303.15 K | 313.15 K | 323.15 K
101 kPa, x2 = 0.1 | 5.473 | 4.774 | 3.78 | 3.059
101 kPa, x2 = 0.2 | 3.996 | 3.557 | 2.865 | 2.378
101 kPa, x2 = 0.3 | 3.008 | 2.716 | 2.243 | 1.893
101 kPa, x2 = 0.4 | 2.311 | 2.107 | 1.782 | 1.528
101 kPa, x2 = 0.5 | 1.837 | 1.7 | 1.443 | 1.263
101 kPa, x2 = 0.6 | 1.38 | 1.295 | 1.098 | 0.944
101 kPa, x2 = 0.7 | 1.099 | 1.018 | 0.8763 | 0.7736
101 kPa, x2 = 0.8 | 0.8844 | 0.824 | 0.7219 | 0.6357
101 kPa, x2 = 0.9 | 0.731 | 0.6863 | 0.6047 | 0.5387
101.3 kPa, x2 = 0.02757 | 6.848 | – | – | –
101.3 kPa, x2 = 0.05782 | 6.12 | – | – | –
101.3 kPa, x2 = 0.09608 | 5.439 | – | – | –
101.3 kPa, x2 = 0.1653 | 4.378 | – | – | –
101.3 kPa, x2 = 0.2769 | 3.14 | – | – | –
101.3 kPa, x2 = 0.355 | 2.505 | – | – | –
101.3 kPa, x2 = 0.4708 | 1.842 | – | – | –
101.3 kPa, x2 = 0.5471 | 1.542 | – | – | –
101.3 kPa, x2 = 0.6377 | 1.231 | – | – | –
101.3 kPa, x2 = 0.6871 | 1.093 | – | – | –
101.3 kPa, x2 = 0.7745 | 0.899 | – | – | –
101.3 kPa, x2 = 0.8554 | 0.772 | – | – | –
101.3 kPa, x2 = 0.9319 | 0.668 | – | – | –

From the CheMixHub viscosity set
